Laboratory results: patent US10435406B2, “6,7-cyclicmorphinan derivatives and use thereof” (Purdue Pharma L.P., priority 2014, dated 2019)

Legend:
μ-opioid receptor [1] = target: T1, μ-opioid receptor (Homo sapiens (Human), UniProt P35372); experiment: μ-opioid receptor [35S]GTPγS functional assay (U-2 OS); assay type: biochemical; details: for Emax: U2OS, GTPγS, relative to DAMGO
Description: (§1) [^35S]GTPγS functional assays were conducted using freshly thawed μ-receptor membranes prepared in-house from a cell line expressing recombinant μ opioid receptor in a HEK-293, CHO or U-2 OS cell background, or purchased from a commercial source (Perkin Elmer, Shelton, Conn.; or DiscovRx, Fremont, Calif.). Assay reactions were prepared by sequentially adding the following reagents to binding buffer (100 mM NaCl, 10 mM MgCl2, 20 mM HEPES, pH 7.4) on ice (final concentrations indicated): membrane protein (0.026 mg/mL), saponin ([…]), GDP ([…]) and [^35S]GTPγS (0.20 nM; Perkin Elmer, Shelton, Conn.). The prepared membrane solution (190 μl/well) was transferred to 96-shallow well polypropylene plates containing 10 μl of 20× concentrated stock solutions of the agonist [D-Ala^2, N-methyl-Phe^4 Gly-ol^5]-enkephalin (DAMGO) prepared in dimethyl sulfoxide (DMSO). Plates were incubated for […] at about 25° C. with shaking. Reactions were terminated by rapid filtration onto 96-well Unifilter GF/B filter plates (Perkin Elmer, Shelton, Conn.) using a 96-well tissue harvester (Perkin Elmer, Shelton, Conn.) followed by three filtration washes with 200 μl of ice-cold wash buffer (10 mM NaH2PO4, 10 mM Na2HPO4, pH 7.4). Filter plates were subsequently dried at 50° C. for 2-3 hours. BetaScint scintillation cocktail (Perkin Elmer, Shelton, Conn.) was added (50 μl/well) and plates were counted using a Packard Top-Count for 1 min/well. Data were analyzed using the sigmoidal dose-response curve fitting functions in GraphPad PRISM v. 3.0, or an in-house function for non-linear, sigmoidal dose-response curve-fitting.
(§2) μ GTP EC50 is the concentration of a compound providing 50% of the maximal response for the compound at a μ-opioid receptor.
(§3) μ GTP Emax (%) is the maximal effect elicited by a compound relative to the effect elicited by DAMGO, a standard agonist. Generally, the μ GTP Emax (%) value measures the efficacy of a compound to treat or prevent pain or other Conditions.
(§4) In TABLE 4, activity response of certain Compounds of the Invention to the μ- and κ-opioid receptors was determined as described above for functional assays using U-2 OS cells.

κ opioid receptor [2] = target: T2, κ opioid receptor (Homo sapiens (Human), UniProt P41145); experiment: κ-opioid receptor [35S]GTPγS functional assay (HEK); assay type: biochemical; details: for Emax: HEK, GTPγS, relative to U69,593
Description: (§5) Functional [^35S]GTPγS binding assays were conducted as follows. K opioid receptor membrane solution was prepared by sequentially adding final concentrations of 0.026 μg/μl membrane protein (in-house), 10 μg/mL saponin, 3 μM GDP and 0.20 nM [^35S]GTPγS to binding buffer (100 mM NaCl, 10 mM MgCl2, 20 mM HEPES, pH 7.4) on ice. The prepared membrane solution (190 μl/well) was transferred to 96-shallow well polypropylene plates containing 10 μl of 20× concentrated stock solutions of agonist prepared in DMSO. Plates were incubated for 30 min at a temperature of about 25° C. with shaking. Reactions were terminated by rapid filtration onto 96-well Unifilter GF/B filter plates (Perkin Elmer, Shelton, Conn.) using a 96-well tissue harvester (Packard) and followed by three filtration washes with 200 μl ice-cold binding buffer (10 mM NaH2PO4, 10 mM Na2HPO4, pH 7.4). Filter plates were subsequently dried at 50° C. for 2-3 hours. Fifty μl/well scintillation cocktail (Perkin Elmer, Shelton, Conn.) was added and plates were counted in a Packard Top-Count for 1 min/well.
(§6) GTP EC50 is the concentration of a compound providing 50% of the maximal response for the compound at a κ receptor.
(§7) κ GTP Emax (%) is the maximal effect elicited by a compound relative to the effect elicited by U69,593.
(§8) In TABLE 3, activity response of certain Compounds of the Invention to the μ- and κ-opioid receptors was determined as described above for functional assays using HEK cells.

κ opioid receptor [3] = target: T2, κ opioid receptor; experiment: κ-opioid receptor radioligand dose-displacement binding assay (HEK); details: HEK cells; [3H]-U69,593
Description: Membranes from recombinantHEK-293 cells, CHO or U-2 OS cells expressing the recombinant human κ opioid receptor (κ) were prepared by lysing cells in ice cold hypotonic buffer (2.5 mM MgCl2, 50 mM HEPES, pH 7.4) (10 mL/10 cm dish) followed by homogenization with a tissue grinder/Teflon pestle. Membranes were collected by centrifugation at 30,000×g for 15 min at 4° C. and pellets were resuspended in hypotonic buffer to a final concentration of 1-3 mg/mL. Protein concentrations were determined using the BioRad protein assay reagent with bovine serum albumen as standard. Aliquots of κ receptor membranes were stored at −80° C.
Radioligand dose displacement assays used 0.4 nM [^3H]-U69,593 (GE Healthcare, Piscataway, N.J.; 40 Ci/mmole) with 15 μg membrane protein (recombinant κ opioid receptor expressed in HEK 293 cells; in-house prep) in a final volume of 200 μl binding buffer (5% DMSO, 50 mM Trizma base, pH 7.4). Non-specific binding was determined in the presence of 10 μM unlabeled naloxone or U69,593. All reactions were performed in 96-well polypropylene plates for 1 hour at a temperature of about 25° C. Binding reactions were terminated by rapid filtration onto 96-well Unifilter GF/C filter plates (Perkin Elmer, Shelton, Conn.) presoaked in 0.5% polyethylenimine (Sigma). Harvesting was performed using a 96-well tissue harvester (Perkin Elmer, Shelton, Conn.) followed by five filtration washes with 200 μl ice-cold binding buffer. Filter plates were subsequently dried at 50° C. for 1-2 hours. Fifty μl/well scintillation cocktail (Perkin Elmer, Shelton, Conn.) was added and plates were counted in a Packard Top-Count for 1 min/well.
(§9) In TABLE 2, binding affinity of certain Compounds of the Invention to the μ- and κ-opioid receptors was determined as described above using HEK cells.

μ-opioid receptor [4] = target: T1, μ-opioid receptor; experiment: μ-opioid receptor radioligand dose-displacement binding assay (HEK); details: HEK cells; [3H]-diprenorphine
Description: Radioligand dose-displacement binding assays for μ-opioid receptors used 0.3 nM [^3H]-diprenorphine (Perkin Elmer, Shelton, Conn.), with […] membrane protein/well in a final volume of 500 μl binding buffer (10 mM MgCl2, 1 mM EDTA, 5% DMSO, 50 mM HEPES, pH 7.4). Reactions were carried out in the absence or presence of increasing concentrations of unlabeled naloxone. All reactions were conducted in 96-deep well polypropylene plates for 2 hours at room temperature. Binding reactions were terminated by rapid filtration onto 96-well Unifilter GF/C filter plates (Perkin Elmer, Shelton, Conn.), presoaked in 0.5% polyethylenimine using a 96-well tissue harvester (Perkin Elmer, Shelton, Conn.) followed by performing three filtration washes with 500 μl of ice-cold binding buffer. Filter plates were subsequently dried at 50° C. for 2-3 hours. BetaScint scintillation cocktail (Perkin Elmer, Shelton, Conn.) was added (50 μl/well), and plates were counted using a Packard Top-Count for 1 min/well. The data were analyzed using the one-site competition curve fitting functions in GraphPad PRISM™ v. 3.0 or higher (San Diego, Calif.), or an in-house function for one-site competition curve-fitting.
as §9

κ opioid receptor [5] = target: T2, κ opioid receptor; experiment: κ-opioid receptor [35S]GTPγS functional assay (U-2 OS); assay type: biochemical; details: for Emax: U2OS, GTPγS, relative to U69,593
Description: as §5, §6, §7, §4

μ-opioid receptor [6] = target: T1, μ-opioid receptor; experiment: μ-opioid receptor [35S]GTPγS functional assay (HEK); assay type: biochemical; details: for Emax: HEK, GTPγS, relative to DAMGO
Description: as §1, §2, §3, §8

SMILES | EC50 (μ-opioid receptor [1]) [nM] | Emax (μ-opioid receptor [1]) [%] | EC50 (κ opioid receptor [2]) [nM] | Emax (κ opioid receptor [2]) [%] | Ki (κ opioid receptor [3]) [nM] | Ki (μ-opioid receptor [4]) [nM] | EC50 (κ opioid receptor [5]) [nM] | Emax (κ opioid receptor [5]) [%] | EC50 (μ-opioid receptor [6]) [nM] | Emax (μ-opioid receptor [6]) [%]
O=C1C[C@@H]2C[C@@]3(O)[C@H]4Cc5ccc(O)cc5[C@@]3(CCN4CC3CC3)C[C@@H]2N1 [Compound 10, (6R,6aS,7aS,10aS,11aR)-14-(cyclopropylmethyl)-2,6a-dihydroxy-5,6,6a,7,7a,8,10a,11-octahydro-6,11a-(epiminoethano)naphtho[2,1-f]indol-9(10H)-one] | 1.59 ± 0.19 | 46 ± 1 | 1 ± 0.18 | 76.2 ± 5.39 | 0.16 ± 0.017 | 0.8 ± 0.1 | 0.42 ± 0.027 | 112 ± 2.65 | > 20000 | 0
O=C1C[C@@H]2C[C@@]3(O)[C@H]4Cc5ccc(O)cc5[C@@]3(CCN4CCc3ccccc3)C[C@@H]2N1 [Compound 5, (6R,6aS,7aS,10aS,11aR)-2,6a-dihydroxy-14-phenethyl-5,6,6a,7,7a,8,10a,11-octahydro-6,11a-(epiminoethano)naphtho[2,1-f]indol-9(10H)-one] |  |  | > 20000 | -0.25 ± 0.75 | 4.03 ± 0.7 |  |  |  | 1.94 ± 0.073 | 99.7 ± 2.03
O=C1C=C2C[C@@]3(O)[C@H]4Cc5ccc(O)cc5[C@@]3(CCN4CC3CC3)CC2N1 (stereo partly drawn) [Compound 9, (6R,6aS,11aR)-14-(cyclopropylmethyl)-2,6a-dihydroxy-5,6,6a,7,10a,11-hexahydro-6,11a-(epiminoethano)naphtho[2,1-f]indol-9(10H)-one] | 6.35 ± 1.74 | 19.5 ± 0.29 | 7.24 ± 1.69 | 27.2 ± 3.45 | 2.16 ± 0.45 | 2.34 ± 0.27 | 4.96 ± 0.59 | 87.5 ± 6.44 | > 20000 | 1
CCN1C(=O)C[C@@H]2C[C@@]3(O)[C@H]4Cc5ccc(O)cc5[C@@]3(CCN4CC3CC3)C[C@@H]21 [Compound 16, (6R,6aS,7aS,10aS,11aR)-14-(cyclopropylmethyl)-10-ethyl-2,6a-dihydroxy-5,6,6a,7,7a,8,10a,11-octahydro-6,11a-(epiminoethano)-naphtho[2,1-f]indol-9(10H)-one] |  |  | 0.66 ± 0.059 | 49.7 ± 2.19 | 0.31 ± 0.085 |  |  |  | 4.18 ± 0.61 | 20 ± 0.91
COc1ccc2c(c1)[C@]13CCN(CC4CC4)[C@H](C2)[C@]1(O)C[C@H]1CC(=O)N[C@H]1C3 [Compound 1, (6R,6aS,7aS,10aS,11aR)-14-(cyclopropylmethyl)-6a-hydroxy-2-methoxy-5,6,6a,7,7a,8,10a,11-octahydro-6,11a-(epiminoethano)naphtho[2,1-f]indol-9(10H)-one] | 223 ± 42 | 81.7 ± 3.33 | 1770 ± 713 | 77 ± 8.19 | 12.4 ± 3.09 | 533 ± 170 | 66.9 ± 3.47 | 99 ± 1.53 | 821 ± 190 | 25.8 ± 0.48
